Measured values taken from US20250019370A1, “L-LYSINE SALT OF 4-CHLORO-5-[4-(2,6-DICHLOROPHENYL)SULFONYLPIPERAZIN-1-YL]-1-BENZOFURAN-2-CARBOXYLIC ACID AND VARIOUS FORMS THEREOF” (ENYO PHARMA, priority 2023, published 2025).

Experiments:
[1] = Solubility kinetics in FeSSIF medium; type: physicochemical; details: for Soluble fraction: 37 ° C.
Description: The solubility kinetics of the salt forms as well as the native EYP001 free acid form were determined in FaSSIF and FeSSIF media, and in a pH 4.5 acetate buffer as detailed below: The samples were prepared by adding an excess of each tested bulk (salt or native EYP001) to a given volume of test medium. […] In FaSSIF medium, the soluble concentration was assessed after 24 hours of stirring. […] At each time point, the “supernatant” was isolated and diluted in a solvent mixture allowing its injection into the chromatographic system. The concentration in solution in the test medium was determined by HPLC with external standardization.

[2] = Solubility kinetics in pH 4.5 acetate buffer; type: physicochemical; details: 37 ° C.
Description: The solubility kinetics of the salt forms as well as the native EYP001 free acid form were determined in FaSSIF and FeSSIF media, and in a pH 4.5 acetate buffer as detailed below:
The samples were prepared by adding an excess of each tested bulk (salt or native EYP001) to a given volume of test medium. The suspension was stirred by orbital stirring over 1 hour (in both pH 4.5 acetate buffer and FeSSIF medium) or 24 hours (inFaSSIF medium) at 37° C., protected from light.
In pH 4.5 acetate buffer, the soluble concentration was assessed after 0.5 hour and 1 hour of stirring.
At each time point, the “supernatant” was isolated and diluted in a solvent mixture allowing its injection into the chromatographic system. The concentration in solution in the test medium was determined by HPLC with external standardization.

[3] = Dynamic Vapor Sorption (DVS) analysis (gas water sorption); type: physicochemical
Description: The dynamic vapor sorption (DVS) analysis (gas water sorption) was performed on a DVS-Intrinsic incubator (SMS Ltd), equipped with DVS-Intrinsic Control Software 1.0. The sample, placed in an aluminium basket holder, was submitted to a full-cycle analysis (sorption followed by desorption cycle) under the following conditions:
The sample was first pre-dried under a stream of dry air until a stabilized sample mass was observed. Then, the relative humidity was increased by 5% increments. At each step, the sample mass was allowed to increase until equilibrium is reached (according to a given dm/dt target), and then a new relative humidity rise occurred. Relative humidity was ramped up to 95%. After equilibration at this point, desorption began in a similar stepwise manner, with sample mass decrease again allowed to stabilize after each incremental humidity decrease.
With both segments of the above-described method, the sample mass recording allowed describing of the whole vapor water sorption/desorption behaviour versus relative humidity.

[4] = Pharmacokinetic study Experiment #4, oral administration in rats; type: in vivo, rat; details: 10 mg EqEYP001/Kg, male rats
Description: In a fourth study (Experiment #4), EYP001, EYP001 L-lysine salt amorphous Form and EYP001 L-lysine salt Form VI in aqueous formulations (0.5% CMC, 0.25% Tween 80, water) were orally administrated at a dose of 10 mg EqEYP001/Kg in 8 male rats for each compound (4 rats on day 1 and 4 rats on day 2 for each compound). Blood samples were taken at 0.25 h, 0.5 h, 1 h, 2 h, 4 h, 6 h, 8 h, 12 h, and 24 h after oral administration.

[5] = Thermogravimetric analysis (TGA), mass losses upon heating; type: physicochemical; details: listed as EYP001 L-lysine salt (amorphous form)
Description: Thermogravimetric analysis was performed on a TA Instruments TGA Hi-Res 2950 apparatus equipped with an evolved gas analysis furnace. A sample was placed in an opened aluminium basket and analysed according to the following conditions: […]

[6] = Polymorph screening (solids analysed by XRPD); type: physicochemical; details: amorphous material as starting material
Description: A polymorph screening was performed on EYP001 L-lysine salt crystalline form I (form I as starting material unless otherwise specified).
A number of unique materials with different patterns were produced, including crystalline forms I-IV and an amorphous material. All solids from the screening experiments were analysed by XRPD analysis and the resulting patterns compared to that of the reference. The observed solids and their ways of obtention are described in Table 16.

[7] = Stability of freeze-dried amorphous material under ambient conditions; type: physicochemical
Description: The amorphous material was also prepared by freeze drying of EYP001 L-lysine salt (form I). EYP001 L-lysine salt (form I) was dissolved in CH3CN/H2O (62:38 v:v) at a concentration of 20 mg/mL. Then the solution was freeze-dried to form amorphous EYP001 L-lysine salt. This amorphous material was found stable over at least 19 days under ambient conditions.

[8] = Pharmacokinetic study Experiment #3, oral administration in rats; type: in vivo, rat; details: rat, plasma, 10 mg EqEYP001/Kg, male rats, aqueous formulation
Description: In a third study (Experiment #3), EYP001 and EYP001 L-lysine salt Form I in aqueous formulations (0.5% CMC, 0.25% Tween 80, water) were orally administrated at a dose of 10 mg EqEYP001/Kg in 6-8 male rats for each compound. Blood samples were taken at 0.25 h, 0.5 h, 1 h, 2 h, 4 h, 6 h, 8 h, 12 h, and 24 h after oral administration.

[9] = Pharmacokinetic study Experiment #1, oral administration in rats; type: in vivo, rat; details: rat, in vivo, 50 mg EqEYP001/Kg, male rats, aqueous formulation
Description: In a first study (Experiment #1), EYP001, EYP001 Meglumine salt, and EYP001 L-lysine salt Form I in aqueous formulations (0.5% CMC, 0.25% Tween 80, water) were orally administrated at a dose of 50 mg EqEYP001/Kg in 3 male rats for each compound. Blood samples were taken at 0.25 h, 0.5 h, 1 h, 2 h, 4 h, 6 h, 8 h, 12 h, and 24 h after oral administration.

[10] = Pharmacokinetic study Experiment #2, oral administration in rats; type: in vivo, rat; details: rat, in vivo, 50 mg EqEYP001/Kg, male rats, aqueous formulation
Description: In a second study (Experiment #2), EYP001 and EYP001 L-lysine salt Form I in aqueous formulations (0.5% CMC, 0.25% Tween 80, water) were orally administrated at a dose of 50 mg EqEYP001/Kg in 8 male rats for each compound. Blood samples were taken at 0.25 h, 0.5 h, 1 h, 2 h, 4 h, 6 h, 8 h, 12 h, and 24 h after oral administration.

[11] = Solubility kinetics in FaSSIF medium; type: physicochemical; details: after 24 h
Description: The solubility kinetics of the salt forms as well as the native EYP001 free acid form were determined in FaSSIF and FeSSIF media, and in a pH 4.5 acetate buffer as detailed below: The samples were prepared by adding an excess of each tested bulk (salt or native EYP001) to a given volume of test medium. The suspension was stirred by orbital stirring over 1 hour (in both pH 4.5 acetate buffer and FeSSIF medium) or 24 hours ([…] medium) at 37° C., protected from light. In FaSSIF medium, the soluble concentration was assessed after 24 hours of stirring. […] At each time point, the “supernatant” was isolated and diluted in a solvent mixture allowing its injection into the chromatographic system. The concentration in solution in the test medium was determined by HPLC with external standardization.

[12] = after 0.5 h, listed as EYP001 L-Lysine salt (Amorphous form)
[13] = after 1 h, listed as EYP001 L-Lysine salt (Amorphous form)
[14] = aqueous formulation, listed as EYP001 L-lysine salt (Amorphous Form)
[15] = versus EYP001 free acid, listed as EYP001 L-lysine salt (Amorphous Form)
[16] = Entry 4*: no solvent, 23% RH stress
[17] = Entry 5*: no solvent, 40° C./75% RH stress
[18] = Entry 6*: no solvent, 59% RH stress
[19] = Entry 11*: THF, flash evaporation

Q: With `NCCCC[C@H](N)C(=O)O.O=C(O)c1cc2c(Cl)c(N3CCN(S(=O)(=O)c4c(Cl)cccc4Cl)CC3)ccc2o1` [EYP001 L-lysine salt amorphous form, L-lysine salt of 4-chloro-5-[4-(2,6-dichlorophenyl)sulfonylpiperazin-1-yl]-1-benzofuran-2-carboxylic acid] as the compound, how does the Soluble fraction [1, 12] read?
A: Its Soluble fraction is 1.12 mg/mL of EYP001.

Q: And the Soluble fraction [1, 13]?
A: The Soluble fraction was 1.13 mg/mL of EYP001.

Q: What about the Soluble fraction ([1]; after 2 h, listed as EYP001 L-Lysine salt (Amorphous form)) of the same compound?
A: Its Soluble fraction is 1.12 mg/mL of EYP001.

Q: What about the Soluble fraction ([1]; after 24 h, listed as EYP001 L-Lysine salt (Amorphous form)) of the same compound?
A: The Soluble fraction was 1.11 mg/mL of EYP001.

Q: And the pH ([1]; pH printed with the soluble fraction, after 0.5 h, listed as EYP001 L-Lysine salt (Amorphous form))?
A: Its pH is “(pH = 4.9)”.

Q: What about the pH ([1]; pH printed with the soluble fraction, after 1 h, listed as EYP001 L-Lysine salt (Amorphous form)) of the same compound?
A: The pH was “(pH = 4.9)”.

Q: What about the pH ([1]; pH printed with the soluble fraction, after 24 h, listed as EYP001 L-Lysine salt (Amorphous form)) of the same compound?
A: Its pH is “(pH = 5.0)”.

Q: What about the Soluble fraction [2, 12] of the same compound?
A: The Soluble fraction was 0.029 mg/mL of EYP001.

Q: And the Soluble fraction [2, 13]?
A: The Soluble fraction was 0.023 mg/mL of EYP001.

Q: And the “stability at high relative humidity (DVS)” value ([3]; 25° C.)?
A: Its value is “unstable at high relative humidity”.

Q: And the “mass loss during preliminary drying phase” value ([3]; 25° C./0% RH before sorption)?
A: The value was 2.6%.

Q: What about the “water uptake upon sorption (DVS)” value ([3]; 25° C./40% RH) of the same compound?
A: Its value is 3.5 % wt.

Q: What about the “water uptake (DVS)” value ([3]; 25° C./60% RH, listed as EYP001 L-Lysine salt amorphous form) of the same compound?
A: The value was 6.8%.

Q: What about the “water uptake upon sorption (DVS)” value ([3]; 25° C./75% RH) of the same compound?
A: Its value is 11.5 % wt.

Q: What about the “water uptake upon sorption (DVS), after drastic decrease” value ([3]; 25° C./95% RH) of the same compound?
A: The value was 4 % wt.

Q: What about the maximum hysteresis sorption/desorption ([3]; 25° C., listed as EYP001 L-Lysine salt amorphous form) of the same compound?
A: The maximum hysteresis sorption/desorption was 10.3%.

Q: And the “mass below the initial mass after desorption” value ([3]; back to 25° C./0% RH after full cycle)?
A: Its value is “about 1.3 % wt”.

Q: And the “hygroscopicity (DVS)” value ([3]; hygroscopic above 2% mass gain at 25° C./60% RH, listed as EYP001 L-Lysine salt amorphous form)?
A: Its value is “hygroscopic”.

Q: And the “Mean AUClast” value [4, 14]?
A: Its value is 4764.7 ng·h/mL.

Q: And the “Mean Cmax” value [4, 14]?
A: The value was 2130.0 ng/mL.

Q: What about the “% increase/EYP001 (AUClast)” value [4, 15] of the same compound?
A: Its value is “+41.1%”.

Q: And the “% increase/EYP001 (Cmax)” value [4, 15]?
A: The value was “+47.4%”.

Q: What about the “onset temperature of thermal decomposition (TGA)” value ([5]; heater ramp 10 ° C./min, nitrogen) of the same compound?
A: Its value is 241 °C.

Q: And the “mass loss before the beginning of thermal decomposition (TGA)” value ([5]; upon heating)?
A: Its value is 2.4%.

Q: What about the Results [6, 16] of the same compound?
A: The Results was “solid”.

Q: What about the XRPD [6, 16] of the same compound?
A: The XRPD was “Amorphous”.

Q: And the Results [6, 17]?
A: The Results was “solid”.

Q: And the XRPD [6, 17]?
A: Its XRPD is “Form I”.

Q: And the Results [6, 18]?
A: The Results was “solid”.

Q: What about the XRPD [6, 18] of the same compound?
A: Its XRPD is “Form I”.

Q: And the Results ([6]; Entry 9*: no solvent, milling)?
A: Its Results is “solid”.

Q: What about the XRPD ([6]; Entry 9*: no solvent, milling) of the same compound?
A: The XRPD was “Amorphous”.

Q: And the Results [6, 19]?
A: The Results was “solid”.

Q: And the XRPD [6, 19]?
A: Its XRPD is “Amorphous”.

Q: And the time found stable [7]?
A: Its time found stable is “at least 19 days”.

Q: What does the source list for `O=C(O)c1cc2c(Cl)c(N3CCN(S(=O)(=O)c4c(Cl)cccc4Cl)CC3)ccc2o1` [EYP001, 4-chloro-5-[4-(2,6-dichlorophenyl)sulfonylpiperazin-1-yl]-1-benzofuran-2-carboxylic acid]?
A: Soluble fraction ([1]; after 0.5 h): 0.38 mg/mL of EYP001; Soluble fraction ([1]; after 1 h): 0.45 mg/mL of EYP001; Soluble fraction ([1]; after 2 h): 0.51 mg/mL of EYP001; Soluble fraction ([1]; after 24 h): 0.62 mg/mL of EYP001; pH ([1]; pH given with the soluble fraction, after 0.5 h): (pH = 4.9); pH ([1]; pH given with the soluble fraction, after 1 h): (pH = 6.4); pH ([1]; pH given with the soluble fraction, after 2 h): (pH = 4.9); pH ([1]; pH given with the soluble fraction, after 24 h): (pH = 4.9); Soluble fraction ([2]; after 0.5 h): 0.004 mg/mL of EYP001; Soluble fraction ([2]; after 1 h): 0.003 mg/mL of EYP001; Cmax ([4]; rat, in vivo, aqueous formulation): 1440 ng/mL; AUC(0-t) ([4]; rat, in vivo, aqueous formulation, read-out: Mean AUClast): 3380 ng·h/mL; Cmax [8]: 1350 ng/mL; AUC(0-t) ([8]; read-out: Mean AUC0-24): 3970 ng·h/mL; Cmax [9]: 6990 ng/mL; AUC(0-t) ([9]; read-out: Mean AUC0-24): 52300 ng·h/mL; Cmax [10]: 5580 ng/mL; AUC(0-t) ([10]; read-out: Mean AUC0-24): 29000 ng·h/mL; Soluble fraction ([11]; 37° C.): 0.20 mg/mL of EYP001; pH ([11]; pH given with the soluble fraction): 6.4
